Measurements published in patent US5318776A, “Composition for preventing graying of the hair” (priority 1988, dated 1994).

Columns and labels:
[1] = Stability: residual amount of test compound after standing at 30° C. for 3 months, liquid chromatography; type: physicochemical; settings: for remaining at 2190 h: read-out: Stability Residue(%)
Description: (§1) One month thereafter, regenerated hair was collected from a constant area and the rate (%) of generated grayed hair to all the number of hair collected was estimated. In addition, the aforementioned hair tonic type preparations were allowed to stand at 30° C. for 3 months and the residual amount of the test compounds therein was examined by liquid chromatography as well as the degree of change in smell was also evaluated by means of sensory test.
as §1, with “compositions” for “hair tonic type preparations”, “by” for “by means of”, “test. […] In addition, the abbreviation P means the averaged added molar number of ethylene oxide residues.” for “test.”

[2] = tested on: grayed hair (melanocytes); assay: Inhibition of generation of grayed hair in stressed black mice; type: in vivo; settings: Table V, 0.05% test compound in hair tonic, 0.1 ml twice a day, 1 month, control 17.1
Description: It is known that stress is one of the causes of graying of the hair. […] Moreover, the stability of the composition with time was also estimated.
as §1
as §1, with “compositions” for “hair tonic type preparations”, “by” for “by means of”, “test. […] In addition, the abbreviation P means the averaged added molar number of ethylene oxide residues.” for “test.”

grayed hair = assay: Half-Head technique application to scalp of men having grayed hair; type: in vivo, men (40 to 60 years old)
Description: Then, the effects of preventing graying of the hair and restoring grayed hair to its natural color were evaluated by comparing the conditions of the portions observed before and after the application of Samples and the results obtained were listed in the following Table VIII. […]
Then, the effectiveness of the hair cream of the invention and that of Comp.

[3] = Sensory test: degree of change in smell after standing at 30° C. for 3 months;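 on Stability S.E. (Sensory Evaluation): double circle means no smell deterioration on a four-grade scale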; type: physicochemical; settings: for Stability S.E. (Sensory Evaluation): Table V, 0.05% in hair tonic, 30° C., 3 months
Description: as §1
as §1, with “compositions” for “hair tonic type preparations”, “by” for “by means of”, “test. […] In addition, the abbreviation P means the averaged added molar number of ethylene oxide residues.” for “test.”

[4] = hair tonic, Table V, 0.05% in hair tonic, 30° C., 3 months
[5] = Example 6, hair tonic as in Example 3
[6] = Example 7, hair cream as in Example 5

In the case of `Nc1ncnc2c1nc(O)n2[C@@H]1O[C@@H]2COP(=O)(O)O[C@H]2[C@H]1O` [8-hydroxy cAMP-Na], the “stability (in words)” value ([1]; Example 6, hair tonic) is reported as “stable”, the remaining at 2190 h [1, 4] is reported as 99.7% and the “Rate of Grayed Hair (%)” value [2] is reported as 5.6%. For the same compound, the “effect of preventing graying of the hair and restoring grayed hair to its natural color (in words)” value (“effect” below) (grayed hair; [5]) was “the same effect of preventing graying of the hair and restoring grayed hair to its natural color as in Example 3”, the “quality deterioration such as giving out of bad smell” value (“quality deterioration such” below) ([3]; Example 6, hair tonic) was “did not cause quality deterioration such as giving out of bad smell” and the “Stability S.E. (Sensory Evaluation)” value [3] was “.circleincircle”.

With `CCCCSc1nc2c(N)ncnc2n1[C@@H]1O[C@@H]2COP(=O)(O)O[C@H]2[C@H]1O` [8-butylthio cAMP-Na] the “stability (in words)” value ([1]; Example 7, hair cream) was “stable”, the remaining at 2190 h [1, 4] was 99.9% and the “Rate of Grayed Hair (%)” value [2] was 6.5%. For the same compound, the “effect” value (grayed hair; [6]) was “the same effect of preventing graying of the hair and restoring grayed hair to its natural color as in Example 5”, the “quality deterioration such” value ([3]; Example 7, hair cream) was “did not cause quality deterioration such as giving out of bad smell” and the “Stability S.E. (Sensory Evaluation)” value [3] was “.circleincircle”.

For `Nc1ncnc2c1nc(SCCO)n2[C@@H]1O[C@@H]2COP(=O)([O-])O[C@H]2[C@H]1O.[Na+]` [8-ethylhydroxythio cAMP-Na], the “stability (in words)” value ([1]; Example 6, hair tonic) was “stable”, the “Stability Residue(%)” value ([1]; Table V, 0.05% in hair tonic, 30° C., 3 months, 131400 min) was 99.6% and the “Rate of Grayed Hair (%)” value [2] was 5.5%. The “effect” value (grayed hair; [5]) was “the same effect of preventing graying of the hair and restoring grayed hair to its natural color as in Example 3”, the “quality deterioration such” value ([3]; Example 6, hair tonic) was “did not cause quality deterioration such as giving out of bad smell” and the “Stability S.E. (Sensory Evaluation)” value [3] was “.circleincircle”.

For `COc1nc2c(N)ncnc2n1[C@@H]1O[C@@H]2COP(=O)(O)O[C@H]2[C@H]1O` [8-methoxy cAMP-Na], the remaining at 2190 h [1, 4] was 99.9%, the “Rate of Grayed Hair (%)” value [2] was 4.5% and the “effect” value (grayed hair; Examples 3 to 5, Half-Head, men, 3 months) was “remarkable effects of preventing graying of the hair and restoring grayed hair to its natural color”. For the same compound, the “Stability S.E. (Sensory Evaluation)” value [3] was “.circleincircle”.

In the case of `CCCCNc1nc2c(N)ncnc2n1[C@@H]1O[C@@H]2COP(=O)(O)O[C@H]2[C@H]1O` [8-butylamino cAMP-Na], the “stability (in words)” value ([1]; Example 7, hair cream) is reported as “stable”, the remaining at 2190 h [1, 4] is reported as 99.5% and the “Rate of Grayed Hair (%)” value [2] is reported as 7.1%. For the same compound, the “effect” value (grayed hair; [6]) was “the same effect of preventing graying of the hair and restoring grayed hair to its natural color as in Example 5”, the “quality deterioration such” value ([3]; Example 7, hair cream) was “did not cause quality deterioration such as giving out of bad smell” and the “Stability S.E. (Sensory Evaluation)” value [3] was “.circleincircle”.
